# Read-outs that look alike come from different tables or passages of the source.
# Molecular target: T1, human GPR119 receptor (Homo sapiens, UniProt Q8TDV5, S329A/T327A)
# T1 construct: N-terminal leader […]; expressed in transfected cells
# T1 sequence (Q8TDV5 with tags, fused parts or gaps T327A/S329A): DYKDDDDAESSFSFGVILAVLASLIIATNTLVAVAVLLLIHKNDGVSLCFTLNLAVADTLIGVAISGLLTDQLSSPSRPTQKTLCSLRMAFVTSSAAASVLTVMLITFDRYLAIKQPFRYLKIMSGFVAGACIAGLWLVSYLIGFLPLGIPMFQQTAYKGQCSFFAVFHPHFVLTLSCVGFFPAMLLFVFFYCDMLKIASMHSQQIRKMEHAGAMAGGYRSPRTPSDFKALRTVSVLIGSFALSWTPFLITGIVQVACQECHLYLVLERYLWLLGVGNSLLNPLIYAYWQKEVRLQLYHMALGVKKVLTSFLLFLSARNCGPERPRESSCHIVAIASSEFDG
# Test: cAMP assay (LANCE cAMP-384) in HEK293 cells stably expressing mutant human GPR119 receptor
# Format: cell-based
# Method in brief: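 Agonist EC50 came from nonlinear regression over 12 concentrations (30 μM–100 pM), with % stimulation at 10 μM where no EC50 was obtained. Cells: stable HEK293 with mutant human GPR119 (T327A/S329A), 20 min compound at 37° C; cAMP read by LANCE kit with standard curve.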
# [1] = the 43rd table, compounds 75-1 to 75-38, read-out: EC50
# [2] = the 36th table, compounds 66-1 to 66-51, read-out: EC50
# [3] = cAMP accumulation, HEK293 cells stably expressing mutant human GPR119, read-out: EC50
# [4] = the 19th table, unit inferred, read-out: EC 50
# [5] = the 37th table, compounds 66-52 to 66-64, read-out: EC50
# [6] = the 44th table, compounds 77-1 to 77-14, read-out: EC50
smiles,measurement,setting,value
CC(C)OC(=O)N1CCC(ON=C2CCN(c3cc(F)c(CC(=O)N4CC[C@H](N)C4)cc3F)CC2)CC1 [Example 75-20],EC50,[1],45 nM
CS(=O)(=O)c1ccc(N2CCC(=NOC3CCN(Cc4ccc(Br)cc4)CC3)CC2)c(F)c1 [Example 66-41],EC50,[2],609 nM
CC(C)OC(=O)N1CCC(ON=C2CCN(c3cc(F)c(Br)cc3F)CC2)CC1 [Example 2-40],EC50,[3],2000 nM
CCc1cnc(N2CCC(ON=C3CCN(c4cc(F)c(C(=O)N5CCC[C@@H]5CN)cc4F)CC3)CC2)nc1 [Example 29-132],EC50,[4],114 nM
CC(C)OC(=O)N1CCC(ON=C2CCN(c3cc(F)c(C(=O)N4CCCCC4CN)cc3F)CC2)CC1 (stereo not shown) [Example 29-57],EC50,"the 15th table, read-out: EC50",185 nM
CCc1ccc(C(C)N2CCC(ON=C3CCN(c4cc(F)c(S(C)(=O)=O)cc4F)CC3)CC2)cc1 (stereo not shown) [Example 66-58],EC50,[5],72 nM
CC(C)OC(=O)N1CCC(ON=C2CCN(c3ncc(C#N)c(N)n3)CC2)CC1 [Example 2-18],EC50,[3],> 10000 nM
CC(C)OC(=O)N1CCC(ON=C2CCN(c3nc(F)c(F)cc3F)CC2)CC1 [Example 2-75],EC50,[3],453 nM
"CC(C)OC(=O)N1CCC(ON=C2CCCN(c3ccc(S(C)(=O)=O)cc3F)C2)CC1 (mixture of isomers) [Example 61-1, 4-[1-(2-Fluoro-4-methanesulfonyl-phenyl)-piperidin-(3Z)-ylideneaminooxy]-piperidine-1-carboxylic acid isopropyl ester]",EC50,"the 31st table, read-out: EC50",> 10000 nM
CS(=O)(=O)c1ccc(N2CCC(=NOC3CCN(Cc4ccccn4)CC3)CC2)c(F)c1 [Example 66-3],EC50,[2],> 10000 nM
CC(C)OC(=O)N1CCC(ON=C2CCN(c3cc(F)c(C(=O)N4CCN(C)CC4)cc3F)CC2)CC1 [Example 29-4],EC50,"the 15th table, read-out: EC50",80 nM
CCc1cnc(N2CCC(ON=C3CCN(c4cc(F)c(CC(=O)N5CCNCC5)cc4F)CC3)CC2)nc1 [Example 77-13],EC50,[6],39 nM
CS(=O)(=O)c1ccc(N2CCC(=NOC3CCN(c4cc(C(F)(F)F)ccn4)CC3)CC2)c(F)c1 [Example 63-10],EC50,"the 32nd table, read-out: EC50",> 10000 nM
CC(C)OC(=O)N1CCC(ON=C2CCN(c3ccc4c(c3)CCC4=O)CC2)CC1 [Example 2-38],EC50,[3],> 10000 nM
CCc1cnc(N2CCC(ON=C3CCN(c4cc(F)c(CC(=O)N(C)C)cc4F)CC3)CC2)nc1 [Example 77-3],EC50,[6],18 nM
"CC(C)OC(=O)N1CCC(ON=C2CCN(c3cc(F)c([S+](C)[O-])cc3F)CC2)CC1 (stereo not shown) [Example 43-1, 4-[1-(2,5-Difluoro-4-methanesulfinyl-phenyl)-piperidin-4-ylideneaminooxy]-piperidine-1-carboxylic acid isopropyl ester]",EC50,[3],58 nM
Cc1ccc(CN2CCC(ON=C3CCN(c4cc(F)c(S(C)(=O)=O)cc4F)CC3)CC2)cc1 [Example 66-54],EC50,[5],44 nM
CC(=O)c1cc(F)c(N2CCC(=NOC3CCN(C(=O)OC(C)C)CC3)CC2)cc1F [Example 2-23],EC50,[3],375 nM
CCc1cnc(N2CCC(ON=C3CCN(c4cc(F)c(C(=O)N5CCC(CN)CC5)cc4F)CC3)CC2)nc1 [Example 29-125],EC50,[4],168 nM
CC(C)OC(=O)N1CCC(ON=C2CCN(c3cc(F)c(-c4cscn4)cc3F)CC2)CC1 [Example 27-19],EC50,[3],3080 nM
CS(=O)(=O)c1ccc(N2CCC(=NOC3CCN(C(=O)OCc4ccccn4)CC3)CC2)c(F)c1 [Example 64-17],EC50,"the 33rd table, read-out: EC50",1070 nM
CC(C)OC(=O)N1CCC(ON=C2CCN(c3ccc(C=O)cc3F)CC2)CC1 [Example 2-22],EC50,[3],318 nM
CC(C)OC(=O)N1CCC(ON=C2CCN(c3cc(F)c(-c4cnn(C)c4)cc3F)CC2)CC1 [Example 27-34],EC50,[3],126 nM
"CC(C)OC(=O)N1CCC(ON=C2CCN(c3cc(F)c(C(=O)N(C)C)cc3F)CC2)CC1 [Example 29-1, 4-[1-(4-Dimethylcarbamoyl-2,5-difluoro-phenyl)-piperidin-4-ylideneaminooxy]-piperidine-1-carboxylic acid isopropyl ester]",EC50,"the 15th table, read-out: EC50",129 nM
CC(C)OC(=O)N1CCC(ON=C2CCN(c3nc(Cl)ncc3Cl)CC2)CC1 [Example 2-49],EC50,[3],170 nM
Cc1cc(C(F)(F)F)cc(N2CCC(ON=C3CCN(c4ccc(S(C)(=O)=O)cc4F)CC3)CC2)n1 [Example 63-13],EC50,"the 32nd table, read-out: EC50",1490 nM
CCc1cnc(N2CCC(ON=C3CCN(c4cc(F)c(C(=O)NC5CCCNC5)cc4F)CC3)CC2)nc1 (stereo not shown) [Example 29-127],EC50,[4],322 nM
CC(C)OC(=O)N1CCC(ON=C2CCN(c3cc(F)c(C(=O)N4CCC[C@H]4CN)cc3F)CC2)CC1 [Example 29-58],EC50,"the 15th table, read-out: EC50",189 nM
"CC(C)OC(=O)N1CCC(ON=C2CCN(c3cc(F)c(-n4ccnc4)cc3F)CC2)CC1 [Example 22-1, 4-[1-(2,5-Difluoro-4-imidazol-1-yl-phenyl)-piperidin-4-ylideneaminooxy]-piperidine-1-carboxylic acid isopropyl ester]",EC50,[3],435 nM
"CC(C)OC(=O)N1CCC(ON=C2CCN(c3cc(F)c(COC(=O)[C@@H](NC(=O)OC(C)(C)C)C(C)C)cc3F)CC2)CC1 [Example 42-1, 4-{1-[4-((S)-2-tert-Butoxycarbonylamino-3-methyl-butyryloxymethyl)-2,5-difluoro-phenyl]-piperidin-4-ylideneaminooxy}-piperidine-1-carboxylic acid isopropyl ester]",EC50,[3],928 nM
CCCc1ccc(CN2CCC(ON=C3CCN(c4cc(F)c(S(C)(=O)=O)cc4F)CC3)CC2)c(F)c1 [Example 66-59],EC50,[5],53 nM
CCc1cnc(N2CCC(ON=C3CCN(c4cc(F)c(CC(N)=O)cc4F)CC3)CC2)nc1 [Example 77-4],EC50,[6],32 nM
CS(=O)(=O)c1ccc(N2CCC(=NOC3CCN(C(=O)OCC4CC4)CC3)CC2)c(F)c1 [Example 64-2],EC50,"the 33rd table, read-out: EC50",101 nM
Cc1nc[nH]c1CN1CCC(ON=C2CCN(c3ccc(S(C)(=O)=O)cc3F)CC2)CC1 [Example 66-9],EC50,[2],> 10000 nM
CC(C)OC(=O)N1CCC(ON=C2CCN(c3cc(F)c(CC(=O)NC4CCNC4)cc3F)CC2)CC1 (stereo not shown) [Example 75-17],EC50,[1],152 nM
CCc1ccc(CN2CCC(ON=C3CCN(c4cc(F)c(C(=O)NC)cc4F)CC3)CC2)cc1 [Example 66-71],EC50,"the 38th table, compounds 66-65 to 66-72, read-out: EC50",79 nM
Cc1cnn(Cc2cc(F)c(N3CCC(=NOC4CCN(C(=O)OC(C)C)CC4)CC3)cc2F)c1 [Example 14-10],EC50,[3],8 nM
CC(C)OC(=O)N1CCC(ON=C2CCN(c3cc(F)ccc3C=O)CC2)CC1 [Example 2-19],EC50,[3],345 nM
CS(=O)(=O)c1ccc(N2CCC(=NOC3CCN(Cc4ccc(Cl)cc4)CC3)CC2)c(F)c1 [Example 66-28],EC50,[2],363 nM
"CC(C)OC(=O)N1CCC(ON=C2CCN(c3cc(F)c(CNCCC(=O)O)cc3F)CC2)CC1 [Example 7-1, 4-(1-{4-[(2-Carboxy-ethylamino)-methyl]-2,5-difluoro-phenyl}-piperidin-4-ylideneaminooxy)-piperidine-1-carboxylic acid isopropyl ester]",EC50,[3],1150 nM
CS(=O)(=O)c1ccc(N2CCC(=NOC3CCN(c4ccc(Cl)cn4)CC3)CC2)c(F)c1 [Example 63-24],EC50,"the 32nd table, read-out: EC50",977 nM
CCc1cnc(N2CCC(ON=C3CCN(c4cc(F)c(C(=O)NCCC5CCNCC5)cc4F)CC3)CC2)nc1 [Example 29-112],EC50,[4],38 nM
"CC(=O)OCc1cc(F)c(N2CCC(=NOC3CCN(C(=O)OC(C)C)CC3)CC2)cc1F [Example 11-1, 4-[1-(4-acetoxymethyl-2,5-difluoro-phenyl)-piperidin-4-ylideneaminooxy]-piperidine-1-carboxylic acid isopropyl ester]",EC50,[3],67 nM
COc1ccccc1CN1CCC(ON=C2CCN(c3ccc(S(C)(=O)=O)cc3F)CC2)CC1 [Example 66-18],activation at 10 µM,"HEK293, 20 min, at 10 μM, printed in EC50 column of the 36th table, read-out: stimulation in % at 10 μM",66%
CC(C)OC(=O)N1CCC(ON=C2CCN(c3cc(F)c(CC(=O)N4CC[C@@H](N)C4)cc3F)CC2)CC1 [Example 75-19],EC50,[1],78 nM
CCc1cnc(N2CCC(ON=C3CCN(c4cc(F)c(C(=O)NC5CCNC5)cc4F)CC3)CC2)nc1 (stereo not shown) [Example 29-123],EC50,[4],407 nM
CC(C)OC(=O)N1CCC(ON=C2CCN(c3ccc(CO)c(Cl)n3)CC2)CC1 [Example 2-26],EC50,[3],758 nM
CC(C)OC(=O)NCc1cc(F)c(N2CCC(=NOC3CCN(C(=O)OC(C)C)CC3)CC2)cc1F [Example 16-7],EC50,[3],134 nM
CC(C)OC(=O)N1CCC(ON=C2CCN(c3ncnc4ccsc34)CC2)CC1 [Example 2-15],EC50,[3],4780 nM
Cc1csc(N2CCC(ON=C3CCN(c4ccc(S(C)(=O)=O)cc4F)CC3)CC2)n1 [Example 63-17],EC50,"the 32nd table, read-out: EC50",> 10000 nM
CC(C)OC(=O)N1CCC(ON=C2CCN(c3cc(F)c(CC(=O)N4CCC[C@@H](N)C4)cc3F)CC2)CC1 [Example 75-14],EC50,[1],51 nM
CCc1cnc(N2CCC(ON=C3CCN(c4cc(F)c(CC(=O)N5CC[C@@H](N(C)C)C5)cc4F)CC3)CC2)nc1 [Example 77-6],EC50,[6],9 nM
COC(=O)C(C)(C)COC(=O)N1CCC(ON=C2CCN(c3ccc(S(C)(=O)=O)cc3F)CC2)CC1 [Example 64-30],EC50,"the 33rd table, read-out: EC50",277 nM
Cc1cccc(N2CCC(ON=C3CCN(c4ccc(S(C)(=O)=O)cc4F)CC3)CC2)n1 [Example 63-2],EC50,"the 32nd table, read-out: EC50",1250 nM
CC(C)OC(=O)N1CCC(ON=C2CCN(c3ncc(Br)c(N(C)C)n3)CC2)CC1 [Example 2-54],EC50,[3],> 10000 nM

# From US8293729B2 (Boehringer Ingelheim International GmbH, priority 2009, dated 2012)
